20 compounds from patent publication US20230192705A1, “SHP2 INHIBITORS, COMPOSITIONS AND USES THEREOF” (Betta Pharmaceuticals Co., Ltd, priority 2020, published 2023) can be followed below.

Molecules are shown by their SMILES.

This test deals with T1, SHP2 (Homo sapiens, UniProt Q06124).
T1 sequence (Q06124 1-593): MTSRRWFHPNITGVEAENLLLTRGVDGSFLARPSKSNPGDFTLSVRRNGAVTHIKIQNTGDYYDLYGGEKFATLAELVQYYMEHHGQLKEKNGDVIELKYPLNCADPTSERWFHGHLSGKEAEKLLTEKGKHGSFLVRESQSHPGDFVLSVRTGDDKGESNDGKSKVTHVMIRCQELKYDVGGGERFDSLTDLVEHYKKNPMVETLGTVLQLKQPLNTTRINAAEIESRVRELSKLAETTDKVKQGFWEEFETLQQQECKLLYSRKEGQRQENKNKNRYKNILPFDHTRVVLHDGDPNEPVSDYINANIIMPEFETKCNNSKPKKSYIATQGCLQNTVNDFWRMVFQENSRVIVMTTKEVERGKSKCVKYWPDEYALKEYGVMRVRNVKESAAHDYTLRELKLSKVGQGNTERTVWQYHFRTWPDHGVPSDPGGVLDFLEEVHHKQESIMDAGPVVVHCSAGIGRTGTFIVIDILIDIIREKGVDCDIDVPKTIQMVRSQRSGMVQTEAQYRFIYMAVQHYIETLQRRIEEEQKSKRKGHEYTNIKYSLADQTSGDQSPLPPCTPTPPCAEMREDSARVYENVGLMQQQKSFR
Nature of the test: SHP2 allosteric inhibitor enzyme activity assay (DiFMUP fluorescence). The test is classed as biochemical. The following applies: class symbols. An excerpt:
SHP2 is activated by the binding of a bis-tyrosyl-phosphorylated peptide to its Src homologous 2 (SH2) domain. This subsequent activation step leads to the release of the automatic inhibition interface of SHP2, which in turn activates the SHP2 protein tyrosine phosphatase (PTP) and can be used for substrate recognition and reaction catalysis. The catalytic activity of SHP2 was monitored using the alternative DiFMUP in a rapid fluorescence assay format.
Assay procedures are as follows:
(1) Compound Formulation:
The compound of the present invention (10 mM stock solution) was diluted to a suitable multiple with 100% DMSO and assay buffer, and the final test concentration of the compound of the present invention was 1 μM, 0.333 μM, 0.111 μM, 0.0370 μM, 0.0124 μM, 0.00412 μM, 0.00137 μM, 0.00046 μM, 0.00015 μM, 0.00 μM;
(2) Preparation of Enzyme Reaction Working Fluid:
SHP2 enzyme activity was performed using a final reaction volume of 50 μL and the following assay buffer conditions in 96-well black polystyrene plates (flat bottom, low flange, non-bonding surface) (Perki Elmer, Cat #6005270) at room temperature: 60 mM HEPES, 75 mM NaCl, 75 mM KCl, 0.05% BRIJ-35, 1 mM EDTA, 5 mM DTT.
(3) Enzyme Catalytic Reaction and Data Monitoring:
Compounds of the present invention were added to the corresponding 96-well plates, and no compound and enzyme were provided as blank test wells. SHP2 Activating Peptide (IRS1_pY1172 (dPEG8)pY1222) was placed on ice for melting, and 0.5 μM was added per well, then 0.2 ng SHP2 protein samples were added to corresponding well plates, and incubated at room temperature for 1 hour. Substrate DiFMUP (Invitrogen, Cat #D6567) was added to the reaction at room temperature for 1 hour. Fluorescence signals were monitored using an enzyme reader (Envision, Perki Elmer) using excitation wavelengths and emission wavelengths of 340 nm and 450 nm, respectively.
Inhibition %=[1−(Conversion_sample−Conversion_min)/(Conversion_max−Conversion_min)]*100% Calculation formula: […]
where: Conversion_sample is the mean reading of the sample wells; Conversion_min is the mean reading of blank control wells, representing the reading of the wells without enzyme; Conversion_max is the mean of positive control wells, representing the reading of the wells without inhibitor.
The dose-response curve is fitted with GraphPad Prism software and IC50 was calculated by the “log[inhibitor] vs. response-variable slope” program.
What is called IC50 is the concentration that gives 50% inhibition. A lower IC50 goes with greater potency in that assay. On to `CN1CC=C(c2n[nH]c3nc(N4CCC5(CC4)Cc4ccccc4[C@H]5N)[nH]c(=O)c23)c2ccccc21` [Compound 178, (S)-6-(1-amino-1,3-dihydrospiro[indene-2,4′-piperidin]-1′-yl)-3-(1-methyl-1,2-dihydroquinolin-4-yl)-1,5-dihydro-4H-pyrazolo[3,4-d]pyrimidin-4-one, reference compound], for which the half-inhibitory concentration (IC50) was ≤ 20 nM. With `N[C@@H]1c2ccccc2CC12CCN(c1cnc3c(C4(c5ccccc5)CC4)n[nH]c3n1)CC2` [Example 2, (S)-1′-(3-(1-phenylcyclopropyl)-1H-pyrazolo[3,4-b]pyrazin-6-yl)-1,3-dihydrospiro[indene-2,4′-piperidin]-1-amine] the figure was ≤ 20 nM; with `N[C@@H]1c2ccccc2CC12CCN(c1nc3[nH]nc(C4(c5ccccc5)CC4)c3c3nncn13)CC2` [Example 3], ≤ 20 nM.

`CC1(C)CC1(c1ccccc1)c1n[nH]c2nc(N3CCC4(CC3)Cc3ccccc3[C@H]4N)[nH]c(=O)c12` (stereo partly drawn) [Example 5, 6-((S)-1-amino-1,3-dihydrospiro[indene-2,4′-piperidin]-1′-yl)-3-(2,2-dimethyl-1-phenylcyclopropyl)-1,5-dihydro-4H-pyrazolo[3,4-d]pyrimidin-4-one]: the concentration for half-maximal inhibition (IC50) is > 60 nM. The figure for `N[C@@H]1c2ccccc2CC12CCN(c1nc3[nH]nc(C4(c5ccccc5)CC4(Cl)Cl)c3c(=O)[nH]1)CC2` (stereo partly drawn) [Example 7, 6-((S)-1-amino-1,3-dihydrospiro[indene-2,4′-piperidin]-1′-yl)-3-(2,2-dichloro-1-phenylcyclopropyl)-1,5-dihydro-4H-pyrazolo[3,4-d]pyrimidin-4-one] is > 60 nM. As for `N[C@@H]1c2ccccc2CC12CCN(c1nc3[nH]nc(C4(c5ccccc5Cl)CC4)c3c(=O)[nH]1)CC2` [Example 12, (S)-6-(1-amino-1,3-dihydrospiro[indene-2,4′-piperidin]-1′-yl)-3-(1-(2-chlorophenyl)cyclopropyl)-1,5-dihydro-4H-pyrazolo[3,4-d]pyrimidin-4-one], the IC50 is ≤ 20 nM. The figure for `N[C@@H]1c2ccccc2CC12CCN(c1nc3[nH]nc(C4(c5ccc6ncccc6c5)CC4)c3c(=O)[nH]1)CC2` [Example 14, (S)-6-(1-amino-1,3-dihydrospiro[indene-2,4′-piperidin]-1′-yl)-3-(1-(quinolin-6-yl)cyclopropyl)-1,5-dihydro-4H-pyrazolo[3,4-d]pyrimidin-4-one] is ≤ 20 nM. The figure for `N[C@@H]1c2ccccc2CC12CCN(c1nc3[nH]nc(C4(c5ccccc5C(F)(F)F)CC4)c3c(=O)[nH]1)CC2` [Example 15, (S)-6-(1-amino-1,3-dihydrospiro[indene-2,4′-piperidin]-1′-yl)-3-(1-(2-(trifluoromethyl)phenyl)cyclo-propyl)-1,5-dihydro-4H-pyrazolo[3,4-d]pyrimidin-4-one] is ≤ 20 nM; for `N[C@@H]1c2ccccc2CC12CCN(c1nc3[nH]nc(C4(c5ccccc5OC(F)(F)F)CC4)c3c(=O)[nH]1)CC2` [Example 16, (S)-6-(1-amino-1,3-dihydrospiro[indene-2,4′-piperidin]-1′-yl)-3-(1-(2-(trifluoromethoxy)phenyl)cyclo-propyl)-1,5-dihydro-4H-pyrazolo[3,4-d]pyrimidin-4-one] it is ≤ 20 nM; for `N[C@@H]1c2ccccc2CC12CCN(c1nc3[nH]nc(C4(c5ccc(F)c(F)c5)CC4)c3c(=O)[nH]1)CC2` [Example 20, (S)-6-(1-amino-1,3-dihydrospiro[indene-2,4′-piperidin]-1′-yl)-3-(1-(3,4-difluorophenyl)cyclopropyl)-1,5-dihydro-4H-pyrazolo[3,4-d]pyrimidin-4-one] it is ≤ 20 nM. With `Nc1ccccc1C1(c2n[nH]c3nc(N4CCC5(CC4)Cc4ccccc4[C@H]5N)[nH]c(=O)c23)CC1` [Example 22, (S)-6-(1-amino-1,3-dihydrospiro[indene-2,4′-piperidin]-1′-yl)-3-(1-(2-aminophenyl)cyclopropyl)-1,5-dihydro-4H-pyrazolo[3,4-d]pyrimidin-4-one] the figure was ≤ 20 nM; with `N[C@@H]1c2ccccc2CC12CCN(c1nc3[nH]nc(C4(c5ccccn5)CC4)c3c(=O)[nH]1)CC2` [Example 23, (S)-6-(1-amino-1,3-dihydrospiro[indene-2,4′-piperidin]-1′-yl)-3-(1-(pyridin-2-yl)cyclopropyl)-1,5-dihydro-4H-pyrazolo[3,4-d]pyrimidin-4-one], ≤ 20 nM; with `N[C@@H]1c2ccccc2CC12CCN(c1nc3[nH]nc(C4(c5ccnc(Cl)c5)CC4)c3c(=O)[nH]1)CC2` [Example 25, (S)-6-(1-amino-1,3-dihydrospiro[indene-2,4′-piperidin]-1′-yl)-3-(1-(2-chloropyridin-4-yl)cyclopropyl)-1,5-dihydro-4H-pyrazolo[3,4-d]pyrimidin-4-one], ≤ 20 nM. As for `N#Cc1cc(C2(c3n[nH]c4nc(N5CCC6(CC5)Cc5ccccc5[C@H]6N)[nH]c(=O)c34)CC2)ccn1` [Example 26, (S)-4-(1-(6-(1-amino-1,3-dihydrospiro[indene-2,4′-piperidin]-1′-yl)-4-oxo-4,5-dihydro-1H-pyrazolo[3,4-d]pyrimidin-3-yl)cyclopropyl)picolinonitrile], the IC50 is ≤ 20 nM. The figure for `N[C@@H]1c2ccccc2CC12CCN(c1nc3[nH]nc(C4(c5ccnc(C(F)(F)F)c5)CC4)c3c(=O)[nH]1)CC2` [Example 27, (S)-6-(1-amino-1,3-dihydrospiro[indene-2,4′-piperidin]-1′-yl)-3-(1-(2-(trifluoromethyl)pyridin-4-yl)cyclopropyl)-1,5-dihydro-4H-pyrazolo[3,4-d]pyrimidin-4-one] is ≤ 20 nM; for `COc1cc(C2(c3n[nH]c4nc(N5CCC6(CC5)Cc5ccccc5[C@H]6N)[nH]c(=O)c34)CC2)ccn1` [Example 28, (S)-6-(1-amino-1,3-dihydrospiro[indene-2,4′-piperidin]-1′-yl)-3-(1-(2-methoxypyridin-4-yl)cyclopropyl)-1,5-dihydro-4H-pyrazolo[3,4-d]pyrimidin-4-one] it is ≤ 20 nM.

Turning to `N[C@@H]1c2ccccc2CC12CCN(c1nc3[nH]nc(C4(c5ccnc(NC6CC6)c5)CC4)c3c(=O)[nH]1)CC2` [Example 29, (S)-6-(1-amino-1,3-dihydrospiro[indene-2,4′-piperidin]-1′-yl)-3-(1-(2-(cyclopropylamino)pyridin-4-yl)cyclopropyl)-1,5-dihydro-4H-pyrazolo[3,4-d]pyrimidin-4-one], the 50% inhibitory concentration (IC50) is ≤ 20 nM. With `N[C@@H]1c2ccccc2CC12CCN(c1nc3[nH]nc(C4(c5ccnc(OC6CC6)c5)CC4)c3c(=O)[nH]1)CC2` [Example 30, (S)-6-(1-amino-1,3-dihydrospiro[indene-2,4′-piperidin]-1′-yl)-3-(1-(2-cyclopropoxypyridin-4-yl)cyclopropyl)-1,5-dihydro-4H-pyrazolo[3,4-d]pyrimidin-4-one] the figure was ≤ 20 nM; with `N[C@@H]1c2ccccc2CC12CCN(c1nc3[nH]nc(C4(c5ccnc(N6CCOCC6)c5)CC4)c3c(=O)[nH]1)CC2` [Example 31, (S)-6-(1-amino-1,3-dihydrospiro[indene-2,4′-piperidin]-1′-yl)-3-(1-(2-morpholinopyridin-4-yl)cyclopropyl)-1,5-dihydro-4H-pyrazolo[3,4-d]pyrimidin-4-one], 20 to 60 nM. The figure for `N[C@@H]1c2ccccc2CC12CCN(c1nc3[nH]nc(C4(c5ccc6nccnc6c5)CC4)c3c(=O)[nH]1)CC2` [Example 32, (S)-6-(1-amino-1,3-dihydrospiro[indene-2,4′-piperidin]-1′-yl)-3-(1-(quinoxalin-6-yl)cyclopropyl)-1,5-diliydro-4H-pyrazolo[3,4-d]pyrimidin-4-one] is 20 to 60 nM.
